Data: ChEMBL document CHEMBL4706557, “Synthesis and in vitro and in vivo biological evaluation of novel derivatives of flexicaulin A as antiproliferative agents” (Eur J Med Chem, 2020)
pIC50: −log10 of the molar value. Activity calls are given as the source filed them. The calls are words filed in the database; no cut-off is given here.

How the values were obtained:
[1] = Toxicity in BALB/c mouse assessed as HGB at 20 mg/kg, ip administered once daily for 14 days (reference value: 153.20 +/- 3.87 g/L); format: organism-based; details: in vivo, 336 h, time 14 day
ECa-109 cell line [2] = experiment: Induction of apoptosis in human EC-109 cells assessed as apoptotic rate at 1.5 uM after 24 hrs by Annexin V-FITC/propidium iodide staining based flow cytometry (reference value: 5.3 %); format: functional
ECa-109 cell line [3] = experiment: Induction of apoptosis in human EC-109 cells xenografted in nude BALB/c mouse assessed as apparent cellular loosening at 20 to 40 mg/kg, ip administered once daily for 14 days by H and E staining based histopathological analysis; format: functional, organism-based; details: dose 20-40 mg/kg, time 14.0 day
[4] = Toxicity in BALB/c mouse assessed as abnormalities in liver at 20 to 40 mg/kg, ip administered once daily for 14 days by HE staining based assay; format: organism-based; details: in vivo, 336 h, dose 20-40 mg/kg, time 14 day
ECa-109 cell line [5] = experiment: Induction of apoptosis in human EC-109 cells xenografted in BALB/c mouse assessed as increase in cytochrome C in tumor tissue at 40 mg/kg, ip QD for 14 days by Western blotting analysis relative to control; format: functional, organism-based; details: time 14.0 day
ECa-109 cell line [6] = experiment: Induction of apoptosis in human EC-109 cells assessed as apoptotic rate at 3 uM after 48 hrs by Annexin V-FITC/propidium iodide staining based flow cytometry (reference value: 3.8 %); format: functional
GES1 = experiment: Cytotoxicity against human GES1 cells assessed as inhibition of cell growth incubated for 72 hrs by SRB assay; format: cell-based; details: GES1, 72 h
ECa-109 cell line [7] = experiment: Antitumor activity against human EC109 cells xenografted in nude BALB/c mouse assessed as reduction in tumor weight at 40 mg/kg, ip administered every day for 14 days; format: functional, organism-based; details: time 14.0 day
ECa-109 cell line [8] = experiment: Induction of apoptosis in human EC-109 cells assessed as apoptotic rate at 1.5 uM after 48 hrs by Annexin V-FITC/propidium iodide staining based flow cytometry (reference value: 3.2 %); format: functional
ECa-109 cell line [9] = experiment: Induction of apoptosis in human EC109 cells assessed as increase in phosphorylated JNK expression incubated for 24 hrs by Western blot analysis; format: functional, cell-based
ECa-109 cell line [10] = experiment: Induction of apoptosis in human EC109 cells assessed as increase in intracellular ROS level at 1.5 to 3 uM incubated for 24 hrs by DCFH-DA staining based flow cytometry analysis; format: functional, cell-based; details: dose 1.5-3 µM
ECa-109 cell line [11] = experiment: Induction of apoptosis in human EC109 cells assessed as increase in cleaved caspase 7 expression after 24 hrs by Western blot analysis; format: functional, cell-based
TE-1 = experiment: Antiproliferative activity against human TE-1 cells assessed as inhibition of cell growth incubated for 72 hrs by SRB assay; format: functional, cell-based; details: TE-1, 72 h
ECa-109 cell line [12] = experiment: Induction of apoptosis in human EC109 cells assessed as increase in cleaved caspase 3 expression at 3 uM incubated for 24 hrs in presence of N-acetylcysteine by Western blot analysis; format: functional, cell-based
ECa-109 = experiment: Inhibition of clone formation in human EC109 cells at 0.125 to 0.5 uM after 7 days by crystal violet staining based assay; format: functional, cell-based; details: dose 0.125-0.5 µM, time 7.0 day
ECa-109 cell line [13] = experiment: Antiproliferative activity against human EC109 cells assessed as survival rate preincubated with N-acetylcysteine for 4 hrs followed by compound addition and measured after 24 hrs by SRB assay; format: functional
ECa-109 cell line [14] = experiment: Induction of apoptosis in human EC-109 cells xenografted in BALB/c mouse assessed as increase in Bax/Bcl-2 ratio in tumor tissue at 20 to 40 mg/kg, ip QD for 14 days by Western blotting analysis relative to control; format: functional, organism-based; details: dose 20-40 mg/kg, time 14.0 day
ECa-109 cell line [15] = experiment: Induction of mitochondrial depolarization in human EC-109 cells assessed as depolarized cell population at 3 uM measured after 24 hrs by JC1 dye based flow cytometry (reference value: 4.2 %); format: functional
ECa-109 cell line [16] = experiment: Induction of apoptosis in human EC-109 cells xenografted in BALB/c mouse assessed as increase in phosphorylated JNK in tumor tissue at 20 to 40 mg/kg, ip QD for 14 days by Western blotting analysis; format: functional, organism-based; details: dose 20-40 mg/kg, time 14.0 day
ECa-109 cell line [17] = experiment: Induction of apoptosis in human EC109 cells assessed as increase in BimEL expression after 24 hrs by Western blot analysis; format: functional, cell-based
ECa-109 cell line [18] = experiment: Induction of apoptosis in human EC109 cells assessed as increase in Bax/Bcl2 ratio at 0.75 to 3 uM after 24 hrs by Western blot analysis; format: functional, cell-based; details: dose 0.75-3 µM
ECa-109 cell line [19] = experiment: Induction of apoptosis in human EC-109 cells assessed as apoptotic rate at 3 uM preincubated with N-acetylcysteine for 4 hrs followed by compound addition and measured after 48 hrs by Annexin V-FITC/propidium iodide staining based flow cytometry (reference value: 3.8 %); format: functional
ECa-109 cell line [20] = experiment: Induction of apoptosis in human EC109 cells assessed as increase in cleaved caspase 9 expression at 3 uM incubated for 24 hrs in presence of N-acetylcysteine by Western blot analysis; format: functional, cell-based
ECa-109 cell line [21] = experiment: Induction of apoptosis in human EC109 cells assessed as change in phosphorylated ASK1 expression at 3 uM incubated for 24 hrs in presence of N-acetylcysteine by Western blot analysis; format: functional, cell-based
ECa-109 cell line [22] = experiment: Induction of apoptosis in human EC-109 cells xenografted in nude BALB/c mouse assessed as nuclear shrinkage at 20 to 40 mg/kg, ip administered once daily for 14 days by H and E staining based histopathological analysis; format: functional, organism-based; details: dose 20-40 mg/kg, time 14.0 day
[23] = Toxicity in BALB/c mouse assessed as effect on creatinine content at 20 to 40 mg/kg, ip administered once daily for 14 days; format: organism-based; details: in vivo, 336 h, dose 20-40 mg/kg, time 14 day
ECa-109 cell line [24] = experiment: Induction of apoptosis in human EC-109 cells xenografted in BALB/c mouse assessed as change in Bax expression in tumor tissue at 20 mg/kg, ip QD for 14 days by Western blotting analysis relative to control; format: functional, organism-based; details: time 14.0 day
ECa-109 cell line [25] = experiment: Induction of apoptosis in human EC-109 cells xenografted in nude BALB/c mouse assessed as appearance of morphological changes at 20 to 40 mg/kg, ip administered once daily for 14 days by H and E staining based histopathological analysis; format: functional, organism-based; details: dose 20-40 mg/kg, time 14.0 day
[26] = Toxicity in BALB/c mouse assessed as HGB at 40 mg/kg, ip administered once daily for 14 days (reference value: 153.20 +/- 3.87 g/L); format: organism-based; details: in vivo, 336 h, time 14 day
ECa-109 cell line [27] = experiment: Induction of apoptosis in human EC-109 cells assessed as apoptotic rate at 3 uM after 24 hrs by Annexin V-FITC/propidium iodide staining based flow cytometry (reference value: 5.7 %); format: functional
[28] = Toxicity in BALB/c mouse assessed as effect on WBC level at 40 mg/kg, ip administered once daily for 14 days (reference value: 4.42 +/- 0.79 10^9/L); format: organism-based; details: in vivo, 336 h, time 14 day
[29] = Toxicity in BALB/c mouse assessed as effect on red pulp and white pulp distribution in spleen at 20 to 40 mg/kg, ip administered once daily for 14 days by HE staining based assay; format: organism-based; details: in vivo, 336 h, dose 20-40 mg/kg, time 14 day
ECa-109 cell line [30] = experiment: Antiproliferative activity against human EC109 cells assessed as inhibition of cell growth incubated for 72 hrs by SRB assay; format: functional, cell-based; details: ECa-109, 72 h

Structure (SMILES): C=C1C(=O)[C@@]23[C@H](O)C[C@@H]4C(C)(C)CCC[C@@]4(COC(C)=O)[C@@H]2[C@@H](O)C[C@H]1[C@H]3OC(=O)c1ccc(CCl)cc1
- Activity [1]: 147 g/L
- Activity (ECa-109 cell line [2]): 28.2%
- Activity (ECa-109 cell line [3]): Active
- Activity [4]: Non-Toxic
- Activity (ECa-109 cell line [5]): Active
- Activity (ECa-109 cell line [6]): 88.2%
- pIC50 (GES1): 6.28
- inhibition (ECa-109 cell line [7]): Active
- Activity (ECa-109 cell line [8]): 93.1%
- Activity (ECa-109 cell line [9]): Dose-dependent effect
- Activity (ECa-109 cell line [10]): Active
- Activity (ECa-109 cell line [11]): Dose-dependent effect
- pIC50 (TE-1): 6.57
- Activity (ECa-109 cell line [12]): inactive
- inhibition (ECa-109): Active
- Activity (ECa-109 cell line [13]): 90%
- Activity (ECa-109 cell line [14]): Active
- Activity (ECa-109 cell line [15]): 70.7%
- Activity (ECa-109 cell line [16]): Active
- Activity (ECa-109 cell line [17]): Dose-dependent effect
- Activity (ECa-109 cell line [18]): Active
- Activity (ECa-109 cell line [19]): 4.8%
- Activity (ECa-109 cell line [20]): inactive
- Activity (ECa-109 cell line [21]): inactive
- Activity (ECa-109 cell line [22]): Active
- Activity [23]: Non-Toxic
- Activity (ECa-109 cell line [24]): inactive
- Activity (ECa-109 cell line [25]): Active
- Activity [26]: 144.4 g/L
- Activity (ECa-109 cell line [27]): 33.7%
- Activity [28]: 4.21 10^9/L
- Activity [29]: Non-Toxic
- pIC50 (ECa-109 cell line [30]): 6.89
